Reference: article PMC11786751, “An SH3-binding allosteric modulator stabilizes the global conformation of the AML-associated Src-family kinase, Hck” (The Journal of Biological Chemistry, 2024)

Assays:
Lyn = target: T1, Lyn (Homo sapiens, UniProt P07948); test: SPR; type: binding
T1 construct: near-full-length (SH3-SH2-kinase-tail)

Hck [1] = target: T2, Hck (Homo sapiens, UniProt P08631, H284A/T285A/Q523E/Q524E/Q525I); test: kinetic kinase assay (ADP Quest), activation of the mutant kinase; type: biochemical
T2 construct: near-full-length Hck (p59 amino acids 84–524, modified tail YEEIP)
T2 sequence (P08631 79-526 H284A/T285A/Q523E/Q524E/Q525I): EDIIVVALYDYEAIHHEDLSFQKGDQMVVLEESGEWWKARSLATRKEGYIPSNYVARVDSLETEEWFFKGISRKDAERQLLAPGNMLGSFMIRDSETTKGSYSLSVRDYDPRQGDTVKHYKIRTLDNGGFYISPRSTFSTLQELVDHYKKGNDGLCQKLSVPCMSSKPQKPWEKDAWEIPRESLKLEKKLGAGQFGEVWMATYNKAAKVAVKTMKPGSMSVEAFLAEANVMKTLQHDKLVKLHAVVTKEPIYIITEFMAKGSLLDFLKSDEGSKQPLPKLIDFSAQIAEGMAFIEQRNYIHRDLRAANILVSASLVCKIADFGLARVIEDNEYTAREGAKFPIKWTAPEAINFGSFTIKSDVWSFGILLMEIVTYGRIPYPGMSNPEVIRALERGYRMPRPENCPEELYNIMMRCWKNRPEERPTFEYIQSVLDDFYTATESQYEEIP

Hck [2] = target: T3, Hck (Homo sapiens, UniProt P08631); test: 1H-15N HSQC NMR titration; also SPR (KD […], near-full-length) and HDX-MS; type: binding
T3 construct: SH3 domain (p59 Hck amino acids 80–144); also SH3-SH2-linker (84–261) and near-full-length Hck (84–524)
T3 sequence (P08631 75-139): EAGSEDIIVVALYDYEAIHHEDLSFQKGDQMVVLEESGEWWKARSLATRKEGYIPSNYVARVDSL

Src = target: T4, Src (Homo sapiens, UniProt P12931); test: SPR; type: binding
T4 construct: near-full-length (SH3-SH2-kinase-tail)
T4 sequence (P12931 2-536): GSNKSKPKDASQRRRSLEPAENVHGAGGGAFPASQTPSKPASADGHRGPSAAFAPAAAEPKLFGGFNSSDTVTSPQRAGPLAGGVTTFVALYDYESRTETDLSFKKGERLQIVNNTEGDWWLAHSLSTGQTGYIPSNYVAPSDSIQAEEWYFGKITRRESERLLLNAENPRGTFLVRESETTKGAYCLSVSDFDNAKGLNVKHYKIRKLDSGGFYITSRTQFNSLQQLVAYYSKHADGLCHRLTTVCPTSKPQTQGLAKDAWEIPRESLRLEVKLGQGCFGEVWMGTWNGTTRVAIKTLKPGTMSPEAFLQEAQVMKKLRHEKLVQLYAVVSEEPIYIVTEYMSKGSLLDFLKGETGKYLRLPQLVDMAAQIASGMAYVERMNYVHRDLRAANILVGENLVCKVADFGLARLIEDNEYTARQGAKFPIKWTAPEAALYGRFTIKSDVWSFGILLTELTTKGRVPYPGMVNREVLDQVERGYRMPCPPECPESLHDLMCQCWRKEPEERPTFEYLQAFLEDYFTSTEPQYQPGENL

Hck [3] = target: T3, Hck; test: 1H-15N HSQC NMR titration; also SPR (KD […], near-full-length), HDX-MS and kinase activation; type: binding

T1 sequence (P07948 2-512): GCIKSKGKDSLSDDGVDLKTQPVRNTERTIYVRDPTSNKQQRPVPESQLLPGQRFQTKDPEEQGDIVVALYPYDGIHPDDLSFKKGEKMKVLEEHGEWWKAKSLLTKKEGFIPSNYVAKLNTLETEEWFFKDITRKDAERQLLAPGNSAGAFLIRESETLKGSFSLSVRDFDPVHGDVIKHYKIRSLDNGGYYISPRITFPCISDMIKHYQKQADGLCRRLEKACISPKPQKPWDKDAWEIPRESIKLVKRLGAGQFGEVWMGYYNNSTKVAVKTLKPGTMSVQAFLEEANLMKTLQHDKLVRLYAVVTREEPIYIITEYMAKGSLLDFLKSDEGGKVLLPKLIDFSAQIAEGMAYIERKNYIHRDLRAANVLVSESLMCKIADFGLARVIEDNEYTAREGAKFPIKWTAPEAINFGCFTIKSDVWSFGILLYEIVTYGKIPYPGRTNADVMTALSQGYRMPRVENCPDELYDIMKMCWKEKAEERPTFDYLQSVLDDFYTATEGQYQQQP

Row | Compound | Kd (Lyn) | kinetic kinase assay (ADP Quest), activation of the mutant kinase (Hck [1]) | Kd (Hck [2]) | Kd (Src) | Kd (Hck [3])
1 | CC(C)Nc1ccnc(NCc2cccnc2Oc2ccc(F)cc2)n1 [PDA1] | 74.9 ± 19.9 µM | Both PDA1 and PDA2 activated Hck-HTA (Fig. 7B), unlike WT Hck, which is only activated by PDA2 | 42.6 ± 4.7 µM | 55 ± 2.18 µM | 
2 | Cc1cnc(NCc2ccccc2-n2ccnc2)nc1N(C)C [PDA2] | 180 ± 33.7 µM |  |  | 236 ± 18.1 µM | 65.1 ± 3.1 µM
